Data reported in patent US11090288B2, “Pyrazole derivatives and their uses thereof” (Canadian Blood Services, priority 2013, dated 2021).

The compounds below were run on monocytes (phagocytosis of anti-D opsonized RBCs) (assay: Monocyte monolayer assay (MMA), phagocytosis of anti-D opsonized RBCs). Settings: Monocyte; percent inhibition of phagocytosis of anti-D opsonized RBCs by monocytes; compound at 5 micromolar.
Type: cell-based
Procedure: Monocyte monolayer assay. The monocyte monolayer assay (MMA) was performed as previously described (Rampersad, G. C.; Suck, G; Sakac, D; Fahim, S; Foo, A; Denomme, G. A.; Langler, R. F.; Branch, D. R. Transfusion 2005, 45, 384; Foo, A. H.; Fletcher, S. P.; Langler, R. F.; Porter, C. H.; Branch, D. R. Transfusion 2007, 47, 290; Branch, D. R.; Gallagher, M. T.; Mison, A. P.; Sy Siok Hian, A. L.; Petz, L. D. Br. J. Haematol. 1984, 56, 19; Gallagher, M. T.; Branch, D. R.; Mison, A.; Petz, L. D. Exp. Hematol. 1983, 11, 82) in the above 4 references with slight modification. Briefly, peripheral blood mononuclear cells (PBMC) containing monocytes were isolated by ficoll-paque density gradient centrifugation and incubated overnight at 37° C. under 5% CO2 atmosphere. PBMCs were then layered onto chamber slides (Labtek, Thermo Scienctific) and incubated at 37° C., 5% CO2 for 1 hr to allow the monocytes to adhere. Following an aspiration of non-adherent cells, compounds were added at various concentrations to the adhered cells and further incubated for an additional hour. The compounds were aspirated and the monocytes treated with anti-D opsonized RBCs at the aforementioned incubation conditions for an additional 2 hrs. The slides were analyzed under phase microscopy for phagocytosis. A minimum of 100 monocytes were counted per sample and the number of observed RBCs that were phagocytosed were counted and normalized to a positive control to generate a phagocytosis index. Percent inhibition of phagocytosis was calculated as the percentage of control phagocytosis (phagocytosis of opsonized RBCs with compound diluent only).

| SMILES | inhibition at 5 µM [%] |
| --- | --- |
| Cc1cc(OCC2CCCN2Cc2ccccc2)n(-c2ccccc2)n1 (stereo not shown) [Compound 53, 5-((1-Benzylpyrrolidin-2-yl)methoxy)-3-methyl-1-phenyl-1H-pyrazole] | 5 to 15 |
| Cc1cc(COc2cc(C)nn2C2CCCC2)n(-c2ccccc2)n1 [Compound 41, 1-Cyclopentyl-3-methyl-5-((3-methyl-1-phenyl-1H-pyrazol-5-yl)methoxy)-1H-pyrazole] | ≤ 17 |
| Cc1cc(OCCOc2cc(C)nn2-c2ccccc2)n(-c2ccccc2)n1 [Compound 20, 1,2-Bis(3-methyl-1-phenyl-1H-pyrazol-5-yloxy)ethane] | 4 to 14 |
| Cc1cc(OCc2cc(C)nn2-c2ccccc2)n(CCN)n1 [Compound 47, 2-(3-Methyl-5-((3-methyl-1-phenyl-1H-pyrazol-5-yl)methoxy)-1H-pyrazol-1-yl)ethanamine] | 5 to 33 |
| Cc1cc(COc2cc(C)nn2-c2ccc([N+](=O)[O-])cc2)n(-c2ccccc2)n1 [Compound 28, 3-Methyl-5-({[3-methyl-1-(4-nitrophenyl)-1H-pyrazol-5-yl]oxy}methyl)-1-phenyl-1H-pyrazole] | 2 to 16 |
| Cc1cc(Oc2c(N)c(C)nn2-c2ccccc2)n(-c2ccccc2)n1 [Compound 24, 3-Methyl-5-(3-methyl-1-phenyl-1H-pyrazol-5-yloxy)-1-phenyl-1H-pyrazol-4-amine] | 2 |
| Cc1cc(CCc2cc(C)nn2-c2ccccc2)n(-c2ccccc2)n1 [Compound 14, 1,2-Bis(3-methyl-1-phenyl-1H-pyrazol-5-yl)ethane] | ≤ 16 |
| Cc1cc(O)n(Cc2cc(C)nn2-c2ccccc2)n1 [Compound 50, 3-methyl-1-((3-methyl-1-phenyl-1H-pyrazol-5-yl)methyl)-1H-pyrazol-5-ol] | 27 to 58 |
| Cc1cc(CNCc2cc(C)nn2-c2ccccc2)n(-c2ccccc2)n1 [Compound 18, Bis((3-methyl-1-phenyl-1H-pyrazol-5-yl)methyl)amine] | 20 |
| Cc1cc(OCc2cc(C)nn2-c2ccccc2)n(CC(=O)O)n1 [Compound 48, 2-(3-Methyl-5-((3-methyl-1-phenyl-1H-pyrazol-5-yl)methoxy)-1H-pyrazol-1-yl)acetic acid] | 4 to 10 |
| Cc1cc(Oc2c([N+](=O)[O-])c(C)nn2-c2ccccc2)n(-c2ccccc2)n1 [Compound 23, 3-Methyl-5-(3-methyl-1-phenyl-1H-pyrazol-5-yloxy)-4-nitro-1-phenyl-1H-pyrazole] | 12 |
| Cc1cc(COc2cc(C)nn2-c2ccccc2)n(-c2ccccc2)n1 [Compound 15, 3-Methyl-5-((3-methyl-1-phenyl-1H-pyrazol-5-yl)methoxy)-1-phenyl-1H-pyrazole] | ≤ 14 |
| Cc1cc(OCc2cc(C)nn2-c2ccccc2)n(CC2CCCCC2)n1 [Compound 37, 1-(Cyclohexylmethyl)-3-methyl-5-((3-methyl-1-phenyl-1H-pyrazol-5-yl)methoxy)-1H-pyrazole] | 33 to 45 |

Same assay, conditions: percent inhibition of phagocytosis of anti-D opsonized RBCs by monocytes; compound at 5 micromolar

| SMILES | Activity @ 5 micromolar (%) |
| --- | --- |
| Cc1cc(OCc2cc(C)nn2-c2ccccc2)[nH]n1 [Compound 49] | 6-26% |

The compounds below were run on preventive mouse model of ITP (anti-platelet antibody, rat anti-mouse CD41) (assay: Preventive mouse model of ITP, compound given IP or IV). Settings: i.p. (40 mg/kg) or i.v. (16 mg/kg); anti-CD41 1.4 μg daily from Day 0; FIG. 1.
Type: in vivo, Mice (BALB/c)
Procedure: Mice (BALB/c) were treated with an anti-platelet antibody (rat anti-mouse CD41 using 1.4 μg constant dose) daily starting at Day 0 to induce ITP. Platelet counts at Day 2, when a nadir is reached in this model, are shown for untreated mice, mice treated with anti-CD41 only, mice treated with IVIG (1 g/kg) (positive control for ITP amelioration), and mice treated with Compound 50 i.p. (40 mg/kg) or i.v. (16 mg/kg). Treatment groups: n=5 mice per group; control: n=3. Statistical significance by one-way ANOVA with Dunnett posthoc test and is indicated: ** p<0.01; *** p<0.001.

| SMILES | Amelioration of ITP (platelet counts at Day 2) |
| --- | --- |
| Cc1cc(O)n(Cc2cc(C)nn2-c2ccccc2)n1 [Compound 50, 3-methyl-1-((3-methyl-1-phenyl-1H-pyrazol-5-yl)methyl)-1H-pyrazol-5-ol] | ameliorates ITP |

Each compound was assayed on preventive mouse model of ITP (anti-platelet antibody, rat anti-mouse CD41) (assay: Preventive mouse model of ITP, compound given subcutaneously). Settings: SC twice per day (2 sites, 2 mg/ml) starting at Day 0; anti-CD41 1.4 μg daily; FIG. 2.
Type: in vivo, Mice
Procedure: Mice were treated as above with an anti-platelet antibody (rat anti-mouse CD41 using 1.4 μg constant dose) daily starting at Day 0 to induce ITP. Compound 50 was given SC twice per day (2 sites, 2 mg/ml) starting at Day 0. IVIg (1 g/kg) was given on Day 2 for comparison as this is considered the therapeutic dose of IVIg. Treatment groups: n=5 mice per group; control (untreated): n=3. Statistical significance by one-way ANOVA with Dunnett posthoc test and is indicated: ** p<0.01; *** p<0.001.

| SMILES | Amelioration of ITP |
| --- | --- |
| Cc1cc(O)n(Cc2cc(C)nn2-c2ccccc2)n1 [Compound 50, 3-methyl-1-((3-methyl-1-phenyl-1H-pyrazol-5-yl)methyl)-1H-pyrazol-5-ol] | efficacious for the amelioration of ITP |
